US20230243822A1, “MOLECULAR DISEASE PROFILE AND USE THEREOF FOR MONITORING AND TREATING RHEUMATAOID ARTHRITIS” (JANSSEN BIOTECH, INC., priority 2020, published 2023)

Columns and labels:
14-analyte M-DP panel = assay: Pharmacodynamic M-DP score, 14-analyte panel (SomaLogic SOMAscan), clinical studies in RA; type: in vivo, human; details: for M-DP score mean difference ± SD, Good vs. No / M-DP score mean ± SD, DAS28-CRP response group Good / M-DP score mean ± SD, DAS28-CRP response group Moderate / M-DP score mean ± SD, DAS28-CRP response group No: response at week 24; for GMean M-DP scores, change: week 4 or latest time point evaluated (weeks 28, 28, and 12, respectively)
Excerpt: (§1) Serum samples and data from eight interventional clinical studies with seven different active treatments for RA or placebo treatment were obtained and analyzed: sirukumab (anti-IL-6) and placebo treatments in SIRROUND-M (NCT01689532; Takeuchi T, et al. Arthritis Res Ther. 2018 Mar. 7; 20(1): 42), SIRROUND-D (NCT01604343; Takeuchi T, et al. Ann Rheum Dis. 2017 Dec.; 76(12): 2001-2008), and SIRROUND-T (NCT01606761; Aletaha D, et al. Lancet. 2017 Mar. 25; 389(10075): 1206-1217); sirukumab and adalimumab (anti-TNF-alpha) treatments in SIRROUND-H (NCT02019472; Taylor PC, et al. Ann Rheum Dis. 2018 May; 77(5): 658-666); golimumab (anti-TNF-alpha) treatment in GO-FURTHER (NCT00973479; Weinblatt ME, et al. Ann Rheum Dis. 2013 March; 72(3): 381-9); guselkumab (anti-IL-23p19), ustekinumab (anti-IL-12/IL-23p40), and placebo treatments in CNTO1275ARA2001 (NCT01645280; Cox JD, et al. […]); JNJ-40346527 (colony-stimulating factor-1 inhibitor) and placebo treatments in 40346527ARA2001 (NCT01597739; Genovese MC, et al. J Rheumatol. 2015 October; 42(10): 1752-60). Plasma samples were obtained from the RA-MAP TACERA study (Cope AP, et al. Nat Rev Rheumatol. 2018 January; 14(1): 53-60) before (baseline) and 6-months after initiation of conventional synthetic disease-modifying anti-rheumatic drugs (csDMARDs). Details of treatment dose groups, concomitant methotrexate use, and previous experience with csDMARDs and biologics are reported in Table 1. The studies were conducted in accordance with the Declaration of Helsinki. The study protocols were reviewed and approved by an independent ethics committee or institutional review board for each study center. Written informed consent was obtained from all patients before study entry. Additional study details and patient characteristics are available in the referenced publications for each study. For SIRROUND-D and SIRROUND-T studies, sets of serum samples from demographically-matched healthy controls were obtained from commercial sources (BioIVT, Westbury, N.Y.).
(§2) Serum samples from baseline (week 0) and the time points indicated in Table 1 were provided for quantification of 1189 serum analytes using the SomaScan v3.1 platform (SomaLogic, Boulder, Colo.; www.somalogic.com), with the exception of RA-MAP TACERA, for which plasma samples were analyzed for 1301 analytes using the SomaScan v3.2 platform. For some studies, a redacted dataset reporting data for a subset of the analytes was obtained. Relative fluorescence unit (RFU) data were sequentially normalized for hybridization controls (internal standards per samples), median signal across all samples (assumes same total protein concentration across sample set), and calibration controls (common sample standards across analysis plates). Samples failed quality control standards defined by Somalogic were excluded from analyses. The normalized RFU values were log2-transformed for subsequent analyses.
(§3) Changes in analyte expression levels were calculated for individual samples as the log2 transform of the ratio of the analyte level at the indicated time point (visit level) over the analyte level at baseline (baseline level) for a given subject, i.e., log 2(visit level/baseline level). Changes in RA disease-associated analytes per sample were summarized using a pharmacodynamic (PD) molecular disease profile (M-DP) score, defined as the median value of the log 2(visit level/baseline level) values for analytes in the defined M-DP analyte set. […] PD M-DP scores in the log 2(visit level/baseline level) scale can be transformed to percent change from baseline, using the transformation: (2^M-DP score−1)×100%.
Statistical analyses were performed on log2-transformed data, for either normalized Relative fluorescence unit (RFU) datasets or within-subject fold/baseline datasets. Significance of differences between groups was evaluated using General Linear Models, with t-tests when comparing two groups. […]

[1] = test system: 4-analyte M-DP panel (CRP, CXCL10, CXCL13, SAA); assay: Pharmacodynamic M-DP score, 4-analyte panel CRP, CXCL10, CXCL13, SAA (SOMAscan), clinical studies in RA; type: in vivo, human; details: for M-DP score mean difference ± SD, Good vs. No / M-DP score mean ± SD, DAS28-CRP response group Good / M-DP score mean ± SD, DAS28-CRP response group Moderate / M-DP score mean ± SD, DAS28-CRP response group No: response at week 24
Excerpt: as §1, §2, §3
In selecting the best minimal set of analytes that performs similarly to the full 14-analyte set, analyte sets that results in significant associations between DAS28-CRP EULAR good vs. no response with p<0.05 for each study were prioritized (Table 4). […]

RA patients = details: RA patients; cited from earlier work
[2] = SIRROUND-H, score at week 4, sirukumab SC 50 mg q4w or adalimumab SC 40 mg q2w
[3] = 4-analyte, SIRROUND-H, score at week 4, sirukumab SC 50 mg q4w or adalimumab SC 40 mg q2w
[4] = CNTO1275ARA2001, score at week 4, ustekinumab SC 90 mg or guselkumab SC 50 or 200 mg
[5] = CNTO1275ARA2001, score at week 28, ustekinumab SC 90 mg or guselkumab SC 50 or 200 mg
[6] = 4-analyte, CNTO1275ARA2001, score at week 4, ustekinumab SC 90 mg or guselkumab SC 50 or 200 mg
[7] = 4-analyte, CNTO1275ARA2001, score at week 28, ustekinumab SC 90 mg or guselkumab SC 50 or 200 mg
[8] = GO-FURTHER, score at week 14, golimumab IV 2 mg/kg
[9] = 4-analyte, GO-FURTHER, score at week 14, golimumab IV 2 mg/kg

Substance | clinical efficacy in the underlying clinical studies (RA patients) | M-DP score mean ± SD, All treated (14-analyte M-DP panel; [4]) | M-DP score mean difference ± SD, Good vs. No (14-analyte M-DP panel; [4]) | M-DP score mean ± SD, DAS28-CRP response group Good (14-analyte M-DP panel; [4]) | M-DP score mean ± SD, DAS28-CRP response group Moderate (14-analyte M-DP panel; [4]) | M-DP score mean ± SD, DAS28-CRP response group No (14-analyte M-DP panel; [4]) | M-DP score mean ± SD, All treated (14-analyte M-DP panel; [5]) | M-DP score mean difference ± SD, Good vs. No (14-analyte M-DP panel; [5]) | M-DP score mean ± SD, DAS28-CRP response group Good (14-analyte M-DP panel; [5]) | M-DP score mean ± SD, DAS28-CRP response group Moderate (14-analyte M-DP panel; [5]) | M-DP score mean ± SD, DAS28-CRP response group No (14-analyte M-DP panel; [5]) | GMean M-DP scores, change (14-analyte M-DP panel) | M-DP score mean ± SD, All treated [1, 6] | M-DP score mean difference ± SD, Good vs. No [1, 6] | M-DP score mean ± SD, DAS28-CRP response group Good [1, 6] | M-DP score mean ± SD, DAS28-CRP response group Moderate [1, 6] | M-DP score mean ± SD, DAS28-CRP response group No [1, 6] | M-DP score mean ± SD, All treated [1, 7] | M-DP score mean difference ± SD, Good vs. No [1, 7] | M-DP score mean ± SD, DAS28-CRP response group Good [1, 7] | further results
adalimumab [reference compound] | – | – | – | – | – | – | – | – | – | – | – | – | – | – | – | – | – | – | – | – | M-DP score decrease (14-analyte M-DP panel; SIRROUND-H, 4-week treatment, adalimumab SC 40 mg q2w): 12%; M-DP score mean ± SD, All treated (14-analyte M-DP panel; [2]): −0.18 ± 0.33 log2 (fold/baseline); M-DP score mean difference ± SD, Good vs. No (14-analyte M-DP panel; [2]): −0.06 ± 0.33 log2 (fold/baseline); M-DP score mean ± SD, DAS28-CRP response group Good (14-analyte M-DP panel; [2]): −0.22 ± 0.37 log2 (fold/baseline); M-DP score mean ± SD, DAS28-CRP response group Moderate (14-analyte M-DP panel; [2]): −0.17 ± 0.33 log2 (fold/baseline); M-DP score mean ± SD, DAS28-CRP response group No (14-analyte M-DP panel; [2]): −0.14 ± 0.26 [23] * log2 (fold/baseline); M-DP score mean ± SD, All treated [1, 3]: −0.43 ± 0.53 log2 (fold/baseline); M-DP score mean difference ± SD, Good vs. No [1, 3]: −0.29 ± 0.45 (0.0217) log2 (fold/baseline); M-DP score mean ± SD, DAS28-CRP response group Good [1, 3]: −0.58 ± 0.50 log2 (fold/baseline); M-DP score mean ± SD, DAS28-CRP response group Moderate [1, 3]: −0.39 ± 0.59 log2 (fold/baseline); M-DP score mean ± SD, DAS28-CRP response group No [1, 3]: −0.29 ± 0.37 log2 (fold/baseline); M-DP score decrease ([1]; 4-analyte, adalimumab, week 4): 26%; M-DP score effect size (decrease below zero) ([1]; 4-analyte, week 4): 0.8 standard deviations
guselkumab [reference compound] | not clinically efficacious | −0.01 ± 0.19 log2 (fold/baseline) | 0.00 ± 0.19 log2 (fold/baseline) | −0.04 ± 0.19 log2 (fold/baseline) | 0.02 ± 0.20 log2 (fold/baseline) | −0.04 ± 0.19 [12] log2 (fold/baseline) | −0.03 ± 0.26 log2 (fold/baseline) | −0.03 ± 0.21 log2 (fold/baseline) | −0.08 ± 0.10 log2 (fold/baseline) | 0.01 ± 0.34 log2 (fold/baseline) | −0.05 ± 0.25 [12] log2 (fold/baseline) | not decreased | −0.12 ± 0.39 log2 (fold/baseline) | −0.11 ± 0.33 (0.4781) log2 (fold/baseline) | −0.19 ± 0.30 log2 (fold/baseline) | −0.11 ± 0.49 log2 (fold/baseline) | −0.08 ± 0.35 log2 (fold/baseline) | −0.07 ± 0.37 log2 (fold/baseline) | −0.12 ± 0.38 (0.5645) log2 (fold/baseline) | −0.12 ± 0.38 log2 (fold/baseline) | M-DP score mean ± SD, DAS28-CRP response group Moderate [1, 7]: −0.10 ± 0.39 log2 (fold/baseline); M-DP score mean ± SD, DAS28-CRP response group No [1, 7]: −0.01 ± 0.38 log2 (fold/baseline)
ustekinumab [reference compound] | not clinically efficacious | −0.08 ± 0.34 log2 (fold/baseline) | −0.32 ± 0.32 log2 (fold/baseline) | −0.24 ± 0.34 log2 (fold/baseline) | −0.04 ± 0.29 log2 (fold/baseline) | 0.08 ± 0.31 [31] log2 (fold/baseline) | −0.09 ± 0.43 log2 (fold/baseline) | −0.49 ± 0.41 log2 (fold/baseline) | −0.34 ± 0.33 log2 (fold/baseline) | −0.05 ± 0.23 log2 (fold/baseline) | −0.15 ± 0.49 [13] log2 (fold/baseline) | not decreased | −0.05 ± 0.77 log2 (fold/baseline) | −0.81 ± 0.83 (0.0469) log2 (fold/baseline) | −0.49 ± 0.27 log2 (fold/baseline) | 0.06 ± 0.41 log2 (fold/baseline) | 0.33 ± 0.98 log2 (fold/baseline) | 0.04 ± 0.84 log2 (fold/baseline) | −0.94 ± 0.82 (0.0323) log2 (fold/baseline) | −0.53 ± 0.68 log2 (fold/baseline) | M-DP score mean ± SD, DAS28-CRP response group Moderate [1, 7]: −0.04 ± 0.53 log2 (fold/baseline); M-DP score mean ± SD, DAS28-CRP response group No [1, 7]: 0.41 ± 0.94 log2 (fold/baseline); M-DP score effect size (decrease), EULAR DAS28-CRP good responders ([1]; week 4 M-DP scores): > 1.0 standard deviation
golimumab [reference compound] | clinically efficacious | – | – | – | – | – | – | – | – | – | – | – | – | – | – | – | – | – | – | – | M-DP score decrease (14-analyte M-DP panel; GO-FURTHER, 14-weeks treatment, golimumab IV): 26%; M-DP score mean ± SD, All treated (14-analyte M-DP panel; GO-FURTHER, score at week 14, golimumab IV 2 mg/kg weeks 0, 4, then q8w plus methotrexate): −0.44 ± 0.37 log2 (fold/baseline); M-DP score mean difference ± SD, Good vs. No (14-analyte M-DP panel; [8]): −0.35 ± 0.35 log2 (fold/baseline); M-DP score mean ± SD, DAS28-CRP response group Good (14-analyte M-DP panel; [8]): −0.56 ± 0.39 log2 (fold/baseline); M-DP score mean ± SD, DAS28-CRP response group Moderate (14-analyte M-DP panel; [8]): −0.45 ± 0.34 log2 (fold/baseline); M-DP score mean ± SD, DAS28-CRP response group No (14-analyte M-DP panel; [8]): −0.21 ± 0.27 [22] * log2 (fold/baseline); M-DP score mean ± SD, All treated ([1]; 4-analyte, GO-FURTHER, score at week 14, golimumab IV 2 mg/kg weeks 0, 4, then q8w plus methotrexate): −0.94 ± 0.63 log2 (fold/baseline); M-DP score mean difference ± SD, Good vs. No [1, 9]: −0.56 ± 0.55 (0.0003) log2 (fold/baseline); M-DP score mean ± SD, DAS28-CRP response group Good [1, 9]: −1.13 ± 0.61 log2 (fold/baseline); M-DP score mean ± SD, DAS28-CRP response group Moderate [1, 9]: −0.94 ± 0.68 log2 (fold/baseline); M-DP score mean ± SD, DAS28-CRP response group No [1, 9]: −0.57 ± 0.43 log2 (fold/baseline); M-DP score decrease, good response subgroup ([1]; golimumab treatment data): 54%; M-DP score decrease, no response subgroup ([1]; golimumab treatment data): 33%
